Data reported in publication PMC7179302, “Lead Optimization of Dehydroemetine for Repositioned Use in Malaria” (Antimicrobial Agents and Chemotherapy, 2020).
Where a name gives a salt, the structure may show the parent alone.

Columns and labels:
[1] = tested on: mitochondrial membrane potential of P. falciparum strain K1 trophozoites; assay: Rhodamine 123 staining for mitochondrial membrane potential, flow cytometry; format: cell-based, Plasmodium falciparum; settings: deviation from infected blood without drugs
Experimental: Changes in mitochondrial membrane potential were measured using rhodamine 123 (excitation wavelength, 511 nm; emission wavelength, 534 nm), a membrane-permeating cationic fluorescent dye ([49]), which accumulates by electrostatic attraction in the mitochondria because of its negative transmembrane potential. A change in the dye’s concentration in the mitochondria is caused by a depolarization event and can be visualized as a shift in the fluorescence intensity of rhodamine 123 ([50]). Draq5 (excitation wavelength, 647 nm; emission wavelength, >665 nm) is a far-red fluorescent DNA dye which is cell permeating and was used to distinguish the parasites in flow cytometry in the allophycocyanin (APC)-Cy7-A channel. SYBR green was not preferred for this experiment as it emits in the same channel as rhodamine 123 and would result in the overlap of emission signals. Fluorescence microscopy was used to visualize the localization of rhodamine 123 within the cytoplasm of the parasites (Fig. 9).
A decrease in fluorescence intensity measured in the fluorescein isothiocyanate (FITC)-A channel indicates a loss of mitochondrial membrane potential. Atovaquone, a known mitochondrial inhibitor, was used as a control.
Compounds were then washed away by centrifuging the cultures, and a pellet was prepared for each drug concentration. Pellets were then incubated with 1 ml of 200 nM rhodamine 123 for 1 h, followed by a further incubation with 100 μl of 5 μM Draq5 for 20 min. After a wash with PBS, the experiment was read with a flow cytometer on the FITC channel. Loss of mitochondrial membrane potential was indicated by a decrease in fluorescence intensity.

[2] = tested on: Entamoeba histolytica; design: method as in PMID 15610563, PMID 24107123; settings: cited from earlier work
[3] = tested on: HepG2 cells; assay: MTT assay for cell cytotoxicity against HepG2 cells; format: cell-based; settings: HepG2 cells, 48 h; ± SD
Experimental: HepG2 cells (University of Salford stocks, purchased from American Type Culture Collection [ATCC], USA), were grown in medium consisting of RPMI 1640, 2 mM L-glutamine, HEPES, 10% fetal bovine serum, 1% nonessential amino acids, and 1% penicillin-streptomycin. Cells were calculated on a hemocytometer to make a new cell-medium solution to a concentration of 5,000 cells/100 μl, and 100 μl of this new cell solution was added into each well of the 96-well plate. After 24 h of incubation, 100-μl amounts of the drug prepared in the medium were added to the wells. This was repeated in triplicate, and the plate was incubated for a further 48 h ([56]). After the incubation period, 50 μl of MTT solution was added to each well and incubated for 3 h. The liquid in each well was aspirated carefully, 200 μl of DMSO was added to each well, and the results were read on the Ascent plate reader.

[4] = tested on: P. falciparum strain Dd2; assay: microbe, parasite or virus in culture; format: cell-based; settings: Plasmodium falciparum, DD2, read-out: IC50 (μM) Dd2
Experimental: (§1) The cross-resistance assay used relies on the parasites’ incorporation of labeled 3H-hypoxanthine, which is proportional to P. falciparum growth. In vitro cross-resistance of the compounds is measured as the ratio between the IC50 for the tested P. falciparum strain and the IC50 for strain 3D7A. Every replicate from a multidrug-resistant (MDR) strain involved a simultaneous determination using a 3D7A replicate to avoid any artifact linked to experimental conditions.
(§2) The three strains used for the cross-resistance assay were 3D7A, Dd2, and W2, based on their resistance profiles; the assay was carried out by GSK, Tres Cantos. Strain 3D7A is chloroquine sensitive, strain Dd2 is resistant to chloroquine, mefloquine, and pyrimethamine ([57]), and strain W2 is resistant to chloroquine, quinine, pyrimethamine, cycloguanil, and sulfadoxine (from the Malaria Research and Reference Reagent Resource Center [MR4]) ([58]). A culture of red blood cells (RBCs) parasitized by the corresponding strain (0.5% parasitemia, 2% hematocrit) in RPMI 1640, […], and 5 μM hypoxanthine was exposed to 9 dilutions (3-fold serial dilutions) of the compound starting at 5 μM. One hundred microliters of culture volume was plated in 96-well flat-bottom microtiter plates with 0.5 μl drug (200× stock in DMSO). Plates were incubated for 24 h at 37°C, 5% CO2, 5% O2, 90% N2. Next, 3H-hypoxanthine was added and plates were incubated for another 24-h period. After that, parasites were harvested on a glass fiber filter using a TomTec cell harvester 96. Filters were dried, and melt-on scintillator sheets were used to determine the incorporation of 3H-hypoxanthine. Radioactivity was measured using a MicroBeta counter. […] IC50 values were determined using the Grafit 7 program ([41]).

[5] = tested on: P. falciparum strain W2; assay: microbe, parasite or virus in culture; format: cell-based; settings: Plasmodium falciparum, W2, read-out: IC50 (μM) W2
Experimental: as §1, §2

[6] = tested on: P. falciparum strain 3D7A; assay: 3H-hypoxanthine incorporation assay, strain 3D7A; format: cell-based; settings: Plasmodium falciparum; sensitive strain 3D7A, 3H-hypoxanthine incorporation; read-out: IC50 (μM) 3D7A
Experimental: as §1, §2

[7] = tested on: K1 strain of P. falciparum; design: method as in PMID 15610563, PMID 24107123; settings: mean ± standard deviation; cited from earlier work

SMILES	Change in fluorescence intensity (FITC-A mean) of rhodamine 123 ([1]; at 10× IC50, 2 h)	Change in fluorescence intensity (FITC-A mean) of rhodamine 123 ([1]; at IC50, 2 h)	IC50 [2]	LD50 (50% lethal dose), MTT assay [3]	IC50 [4]	IC50 [5]	IC50 [6]	IC50 [7]
O=C1C(O)=C([C@H]2CC[C@H](c3ccc(Cl)cc3)CC2)C(=O)c2ccccc21 [Atovaquone, atovaquone]	43.17%	41.95%						
CC[C@H]1CN2CCc3cc(OC)c(OC)cc3[C@@H]2C[C@@H]1C[C@H]1NCCc2cc(OC)c(OC)cc21 [Emetine dihydrochloride, emetine dihydrochloride, reference compound]	35.13%	31.12%	26800 ± 1270 nM	199.2 ± 9.3 nM	0.269 µM	0.181 µM	0.234 µM	47 nM
